Values of other authors, collected in patent publication US20110152177A1, “Functional Feed Composition” (priority 2008, published 2011).

Tests used:
[1] = system: Vibrio anguillarium; settings: lower and higher doses reported to increase mortalities
[2] = system: V. anguillarum; settings: oral administration of PG at 0.2 and 2 mg/kg diet

## peptidoglycan
[1]
  optimal dose of peptidoglycan in diet: 4 g kg^−1 diet
[2]
  disease resistance: enhances the disease resistance
